Measured values taken from US20070128217A1 (priority 2003, published 2007).

What was measured:
[1] = tested on: antibodies in sera from SARS patients (sera 1a, 1b, 2, 6, 37, 62, London, SARS-yellow, SARS-green); format: binding, human; parameters: Binding of serum 6 to linear peptides of protein X1 of SARS-CoV Urbani / Binding of serum 37 to linear peptides of protein X1 of SARS-CoV Urbani / Binding of serum 6 to looped/cyclic peptide (PEPSCAN-ELISA) / Binding of serum 37 to looped/cyclic peptide (PEPSCAN-ELISA) / Binding of serum 37 to looped/cyclic peptides of protein X1 of SARS-CoV Urbani / Binding of serum 6 to linear peptides of protein X2 / Binding of serum 37 to linear peptides of protein X2 / Binding of serum 37 to looped/cyclic peptides of protein X2 of SARS-CoV Urbani / Binding of serum 6 to linear peptides of protein M of SARS-CoV Urbani / Binding of serum 37 to linear peptides of protein M of SARS-CoV Urbani / Binding of serum 6 to looped/cyclic peptides of protein M of SARS-CoV Urbani / Binding of serum 37 to looped/cyclic peptides of protein M of SARS-CoV Urbani / Binding of serum 6 to linear peptides of protein X3 of SARS-CoV Urbani / Binding of serum 37 to linear peptides of protein X3 of SARS-CoV Urbani / Binding of serum 37 to looped/cyclic peptides of protein X3 of SARS-CoV Urbani / Binding of serum 6 to linear peptides of protein X4 of SARS-CoV Urbani / Binding of serum 37 to linear peptides of protein X4 of SARS-CoV Urbani / Binding of serum 37 to looped/cyclic peptides of protein X4 of SARS-CoV Urbani / Binding of serum 6 to linear peptides of protein X5 of SARS-CoV Urbani / Binding of serum 37 to linear peptides of protein X5 of SARS-CoV Urbani / Binding of serum 37 to looped/cyclic peptides of protein X5 of SARS-CoV Urbani / Binding of serum 6 to linear peptides of protein N of SARS-CoV Urbani / Binding of serum 37 to linear peptides of protein N of SARS-CoV Urbani / Binding of serum 6 to linear peptide (PEPSCAN-ELISA) / Binding of serum 1a to looped/cyclic peptides of protein N of SARS-CoV Urbani / Binding of serum 1b to looped/cyclic peptides of protein N of SARS-CoV Urbani / Binding of serum 2 to looped/cyclic peptides of protein N of SARS-CoV Urbani / Binding of serum 6 to looped/cyclic peptides of protein N of SARS-CoV Urbani / Binding of serum 37 to looped/cyclic peptides of protein N of SARS-CoV Urbani / Binding of serum 62 to looped/cyclic peptides of protein N of SARS-CoV Urbani / Binding of serum London to looped/cyclic peptides of protein N of SARS-CoV Urbani / Binding of serum SARS-green to looped/cyclic peptides of protein N of SARS-CoV Urbani: unit not given here
[2] = tested on: control sera (pooled serum of ten healthy LUMC hospital workers; commercial negative donor pooled serum from the Dutch bloodbank); format: binding, human; parameters: Binding of Control serum LUMC to linear peptides / Binding of Control serum Blood-bank to linear peptides / Binding of Control serum LUMC to looped peptides / Binding of Control Serum Blood-Bank to Looped peptides / Binding of Control serum LUMC to linear peptides of the protein M of SARS-CoV Urbani / Binding of Control serum Blood-bank to linear peptides of the protein M of SARS-CoV Urbani / Binding of Control serum LUMC to looped peptides of the protein M of SARS-CoV Urbani / Binding of Control Serum Blood-Bank to Looped peptides of the protein M of SARS-CoV Urbani: unit not given here
[3] = tested on: rabbit serum obtained by immunizing a rabbit with the SARS-CoV strain Frankfurt 1; format: binding; parameters: Binding of a rabbit serum to linear peptides / Binding of a rabbit serum to looped peptides / Rabbit serum linear peptides / Rabbit serum looped peptides / Binding of a rabbit serum to linear peptides of protein N of SARS-CoV Urbani (Rabbit serum linear peptides) / Binding of a rabbit serum to looped/cyclic peptides of protein N of SARS-CoV Urbani (Rabbit serum looped peptides): unit not given here
[4] = tested on: recombinant human anti-SARS-CoV antibody 03-018; format: binding; parameters: Binding of antibody 03-018 to linear peptides of the N protein of SARS-CoV Urbani / Binding of antibody 03-018 to looped/cyclic peptides of the N protein of SARS-CoV Urbani: unit not given here

Sequence | Binding of serum 1a to linear peptide (PEPSCAN-ELISA) [1] | Binding of serum 1a to looped/cyclic peptides of protein N of SARS-CoV Urbani [1] | Binding of serum 1b to linear peptide (PEPSCAN-ELISA) [1] | Binding of serum 1b to looped/cyclic peptides of protein N of SARS-CoV Urbani [1] | Binding of serum 2 to linear peptide (PEPSCAN-ELISA) [1] | Binding of serum 2 to looped/cyclic peptides of protein N of SARS-CoV Urbani [1] | Binding of serum 6 to looped/cyclic peptides of protein N of SARS-CoV Urbani [1] | Binding of serum 37 to looped/cyclic peptides of protein N of SARS-CoV Urbani [1] | Binding of serum 62 to looped/cyclic peptides of protein N of SARS-CoV Urbani [1] | Binding of serum London to looped/cyclic peptides of protein N of SARS-CoV Urbani [1] | Binding of serum SARS-green to looped/cyclic peptides of protein N of SARS-CoV Urbani [1] | Binding of serum SARS-yellow to looped/cyclic peptides of protein N of SARS-CoV Urbani [1] | Binding of Control Serum Blood-Bank to Looped peptides [2] | Binding of Control serum Blood-bank to linear peptides [2] | Binding of Control serum LUMC to linear peptides [2] | Binding of Control serum LUMC to looped peptides [2] | Binding of a rabbit serum to linear peptides of protein N of SARS-CoV Urbani (Rabbit serum linear peptides) [3] | Binding of a rabbit serum to looped/cyclic peptides of protein N of SARS-CoV Urbani (Rabbit serum looped peptides) [3] | Binding of antibody 03-018 to linear peptides of the N protein of SARS-CoV Urbani [4] | Binding of antibody 03-018 to looped/cyclic peptides of the N protein of SARS-CoV Urbani [4] | also measured
ESKVSGKGQQQQGQT | 0.2 | 0.6 | 0.1 | 0.4 | 0.2 | 0.8 | 0.4 | 0.7 | 0.7 | 0.8 | 0.7 | 0.9 | 1.1 | 0.7 | 0.8 | 0.9 | 0.1 | 0.6 | 0.1 | 0.2 | Binding of serum 6 to linear peptide (PEPSCAN-ELISA) [1]: 0.2; Binding of serum 37 to linear peptide (PEPSCAN-ELISA) [1]: 0.6; Binding of serum 62 to linear peptide (PEPSCAN-ELISA) [1]: 0.7; Binding of serum London to linear peptide (PEPSCAN-ELISA) [1]: 0.5; Binding of serum SARS-green to linear peptide (PEPSCAN-ELISA) [1]: 0.4; Binding of serum SARS-yellow to linear peptide (PEPSCAN-ELISA) [1]: 0.7
ETALALLLLDRLNQL | 0.2 | 0.4 | 0.1 | 0.3 | 0.1 | 0.4 | 0.2 | 0.7 | 0.6 | 0.5 | 0.4 | 0.5 | 0.8 | 0.5 | 0.5 | 0.7 | 0.4 | 0.6 | 0.1 | 0.3 | Binding of serum 6 to linear peptide (PEPSCAN-ELISA) [1]: 0.1; Binding of serum 37 to linear peptide (PEPSCAN-ELISA) [1]: 0.6; Binding of serum 62 to linear peptide (PEPSCAN-ELISA) [1]: 0.4; Binding of serum London to linear peptide (PEPSCAN-ELISA) [1]: 0.5; Binding of serum SARS-green to linear peptide (PEPSCAN-ELISA) [1]: 0.3; Binding of serum SARS-yellow to linear peptide (PEPSCAN-ELISA) [1]: 0.5
FGGPTDSTDNNQNGG | – | 0.2 | – | 0.1 | – | 0.2 | 0.1 | 0.4 | 0.2 | 0.2 | 0.3 | 0.1 | 0.4 | 0.6 | 0.5 | 0.4 | 0.0 | 0.1 | 0.1 | 0.2 | Binding of serum 1a to linear peptides of protein N of SARS-CoV Urbani [1]: 0.3; Binding of serum 1b to linear peptides of protein N of SARS-CoV Urbani [1]: 0.1; Binding of serum 2 to linear peptides of protein N of SARS-CoV Urbani [1]: 0.1; Binding of serum 6 to linear peptides of protein N of SARS-CoV Urbani [1]: 0.1; Binding of serum 37 to linear peptides of protein N of SARS-CoV Urbani [1]: 0.6; Binding of serum 62 to linear peptides of protein N of SARS-CoV Urbani [1]: 0.5; Binding of serum London to linear peptides of protein N of SARS-CoV Urbani [1]: 0.5; Binding of serum SARS-green to linear peptides of protein N of SARS-CoV Urbani [1]: 0.0; Binding of serum SARS-yellow to linear peptides of protein N of SARS-CoV Urbani [1]: 0.5
